Test results from the supplement of paper PMC10307832.

Assays:
Assay in all cases: relative viability (nuclei count vs DMSO), 5 days (fraction); higher = more cells survive
EMC-BAC-2 = tested on: EMC-BAC-2
In short: (§1)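 Nuclei were stained with Hoechst during a one-step fixation (final 0.05% Triton X-100, 1% formaldehyde, 1 ug/ml Hoechst) carried out 5 days after dosing, then counted on 4× images. The cells, lung cancer lines in 1536-well plates, had been dosed by pin tool the day after seeding with one drug alone or a fixed anchor-drug dose plus five library-drug doses (not always all listed) in √10 steps. Relative viability is the nuclei count in treated wells divided by that in vehicle wells, and each value is the median of duplicate plates.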

EPLC-272H = tested on: EPLC-272H
In short: as §1

H3255 = tested on: H3255
In short: as §1

HCC-44 = tested on: HCC-44
In short: as §1

HCC-827 = tested on: HCC-827
In short: as §1

LCLC-97TM1 = tested on: LCLC-97TM1
In short: as §1

NCI-H1355 = tested on: NCI-H1355
In short: as §1

NCI-H1395 = tested on: NCI-H1395
In short: as §1

NCI-H1563 = tested on: NCI-H1563
In short: as §1

NCI-H1651 = tested on: NCI-H1651
In short: as §1

NCI-H1793 = tested on: NCI-H1793
In short: as §1

NCI-H1944 = tested on: NCI-H1944
In short: as §1

NCI-H2023 = tested on: NCI-H2023
In short: as §1

NCI-H2085 = tested on: NCI-H2085
In short: as §1

NCI-H2087 = tested on: NCI-H2087
In short: as §1

NCI-H2405 = tested on: NCI-H2405
In short: as §1

NCI-H322M = tested on: NCI-H322M
In short: as §1

NCI-H520 = tested on: NCI-H520
In short: as §1

NCI-H650 = tested on: NCI-H650
In short: as §1

SK-MES-1 = tested on: SK-MES-1
In short: as §1

UMC-11 = tested on: UMC-11
In short: as §1

In the case of `O=C(O)c1ccc(-c2c[nH]c3ncc(-c4ccccc4)cc23)cc1C1CCCC1` + CS(=O)(=O)CCNCc1ccc(-c2ccc3ncnc(Nc4ccc(OCc5cccc(F)c5)c(Cl)c4)c3c2)o1 [Lapatinib] (partner 2 µM), the relative viability (EMC-BAC-2; first compound 0.04 µM) is reported as 0.848, the relative viability (EMC-BAC-2; first compound 0.1265 µM) is reported as 1.03 and the relative viability (EMC-BAC-2; first compound 0.4 µM) is reported as 0.916. For the same compound, the relative viability (EMC-BAC-2; first compound 1.265 µM) was 0.946, the relative viability (EPLC-272H; first compound 0.04 µM) was 1.16 and the relative viability (EPLC-272H; first compound 0.1265 µM) was 1.01. For the same compound, the relative viability (EPLC-272H; first compound 0.4 µM) was 0.898, the relative viability (EPLC-272H; first compound 1.265 µM) was 0.877 and the relative viability (H3255; first compound 0.04 µM) was 0.24. The relative viability (H3255; first compound 0.1265 µM) was 0.231, the relative viability (H3255; first compound 0.4 µM) was 0.26 and the relative viability (H3255; first compound 1.265 µM) was 0.275. The relative viability (HCC-44; first compound 0.04 µM) was 0.959, the relative viability (HCC-44; first compound 0.1265 µM) was 1.02 and the relative viability (HCC-44; first compound 0.4 µM) was 1.1. It also gave a relative viability (HCC-44; first compound 1.265 µM) of 0.913, a relative viability (HCC-827; first compound 0.04 µM) of 0.209 and a relative viability (HCC-827; first compound 0.1265 µM) of 0.196. For the same compound, the relative viability (HCC-827; first compound 0.4 µM) was 0.189, the relative viability (HCC-827; first compound 1.265 µM) was 0.195 and the relative viability (LCLC-97TM1; first compound 0.04 µM) was 1.34. The relative viability (LCLC-97TM1; first compound 0.1265 µM) was 1.06, the relative viability (LCLC-97TM1; first compound 0.4 µM) was 0.922 and the relative viability (LCLC-97TM1; first compound 1.265 µM) was 0.717. The relative viability (NCI-H1355; first compound 0.04 µM) was 1.02, the relative viability (NCI-H1355; first compound 0.1265 µM) was 1.09 and the relative viability (NCI-H1355; first compound 0.4 µM) was 0.963. For the same compound, the relative viability (NCI-H1355; first compound 1.265 µM) was 0.829, the relative viability (NCI-H1395; first compound 0.04 µM) was 1.01 and the relative viability (NCI-H1395; first compound 0.1265 µM) was 1.23. For the same compound, the relative viability (NCI-H1395; first compound 0.4 µM) was 0.867, the relative viability (NCI-H1395; first compound 1.265 µM) was 0.851 and the relative viability (NCI-H1563; first compound 0.04 µM) was 1.07. For the same compound, the relative viability (NCI-H1563; first compound 0.1265 µM) was 0.939, the relative viability (NCI-H1563; first compound 0.4 µM) was 0.933 and the relative viability (NCI-H1563; first compound 1.265 µM) was 0.968. The relative viability (NCI-H1651; first compound 0.04 µM) was 0.856, the relative viability (NCI-H1651; first compound 0.1265 µM) was 0.867 and the relative viability (NCI-H1651; first compound 0.4 µM) was 0.826. It also gave a relative viability (NCI-H1651; first compound 1.265 µM) of 0.472, a relative viability (NCI-H1793; first compound 0.04 µM) of 0.897 and a relative viability (NCI-H1793; first compound 0.1265 µM) of 1.34. The relative viability (NCI-H1793; first compound 0.4 µM) was 0.969, the relative viability (NCI-H1793; first compound 1.265 µM) was 0.71 and the relative viability (NCI-H1944; first compound 0.04 µM) was 0.695. For the same compound, the relative viability (NCI-H1944; first compound 0.1265 µM) was 1, the relative viability (NCI-H1944; first compound 0.4 µM) was 0.623 and the relative viability (NCI-H1944; first compound 1.265 µM) was 0.736. It also gave a relative viability (NCI-H2023; first compound 0.04 µM) of 0.915, a relative viability (NCI-H2023; first compound 0.1265 µM) of 0.938 and a relative viability (NCI-H2023; first compound 0.4 µM) of 0.779. For the same compound, the relative viability (NCI-H2023; first compound 1.265 µM) was 0.511, the relative viability (NCI-H2085; first compound 0.04 µM) was 0.762 and the relative viability (NCI-H2085; first compound 0.1265 µM) was 0.947. For the same compound, the relative viability (NCI-H2085; first compound 0.4 µM) was 0.799, the relative viability (NCI-H2085; first compound 1.265 µM) was 0.508 and the relative viability (NCI-H2087; first compound 0.04 µM) was 1.01. For the same compound, the relative viability (NCI-H2087; first compound 0.1265 µM) was 1.27, the relative viability (NCI-H2087; first compound 0.4 µM) was 1.02 and the relative viability (NCI-H2087; first compound 1.265 µM) was 1.02. The relative viability (NCI-H2405; first compound 0.04 µM) was 1.08, the relative viability (NCI-H2405; first compound 0.1265 µM) was 1.34 and the relative viability (NCI-H2405; first compound 0.4 µM) was 0.868. It also gave a relative viability (NCI-H2405; first compound 1.265 µM) of 0.867, a relative viability (NCI-H322M; first compound 0.04 µM) of 0.589 and a relative viability (NCI-H322M; first compound 0.1265 µM) of 0.618. The relative viability (NCI-H322M; first compound 0.4 µM) was 0.727, the relative viability (NCI-H322M; first compound 1.265 µM) was 0.55 and the relative viability (NCI-H520; first compound 0.04 µM) was 1.01. For the same compound, the relative viability (NCI-H520; first compound 0.1265 µM) was 0.858, the relative viability (NCI-H520; first compound 0.4 µM) was 0.847 and the relative viability (NCI-H520; first compound 1.265 µM) was 0.604. It also gave a relative viability (NCI-H650; first compound 0.04 µM) of 0.712, a relative viability (NCI-H650; first compound 0.1265 µM) of 1.26 and a relative viability (NCI-H650; first compound 0.4 µM) of 0.639. It also gave a relative viability (NCI-H650; first compound 1.265 µM) of 0.561, a relative viability (SK-MES-1; first compound 0.04 µM) of 0.443 and a relative viability (SK-MES-1; first compound 0.1265 µM) of 0.495. For the same compound, the relative viability (SK-MES-1; first compound 0.4 µM) was 0.464, the relative viability (SK-MES-1; first compound 1.265 µM) was 0.412 and the relative viability (UMC-11; first compound 0.04 µM) was 0.994. It also gave a relative viability (UMC-11; first compound 0.1265 µM) of 1.09, a relative viability (UMC-11; first compound 0.4 µM) of 1.06 and a relative viability (UMC-11; first compound 1.265 µM) of 1.01.
